According to publication PMC7247319, “The mitochondria-targeted peptide SS-31 binds lipid bilayers and modulates surface electrostatics as a key component of its mechanism of action” (The Journal of Biological Chemistry, 2020):
Where a SMILES comes first, the peptide text is derived from it. [ ]: non-standard residue; d: D form. Dmt = Cc1cc(O)cc(C)c1C[C@H](N)C(=O)O

System: LUVs with 20% TOCL
Test: CG-5N assay of Ca2+ accumulation at model membrane interface
Details: peptide titrated into LUVs with 20% TOCL prebound with Ca2+
Description: Figure 7. SS peptide effects on Ca^2+-membrane interactions and mitochondrial cation stress. A, profiles of surface potential decay (top) and ion distribution (bottom) based on GCS theory in the presence or absence of SS-31 (see supporting Results H for model description). B, effect of SS peptides on Ca^2+ accumulation at model membrane interfaces. […] C and D, effect of SS peptides on mitochondrial Ca^2+ uptake. C, time courses of TMRM or CG-5N emission in mitochondrial suspensions with ETH-129 in the absence (top) or presence (bottom) of SS-31 following the addition of NADH (black arrowheads) and CaCl2 (open arrowheads). See Fig. S18A for experimental details. […] Spectral deconvolution yielded the indicated components (see Fig. S19, A and B), which were used to quantify the area ratios of L2/iso in F (values shown are means ± S.D. (error bars) (n = 3). G, respirometry analysis. Mitochondria (1 mg ml^−1) were treated in the absence or presence of SS-31 (54.4 μM) or CaCl2 (1 mM) as indicated and measured for state 2 respiration (n = 10–12 each).
First, we measured the effects of SS peptides on the accumulation of Ca^2+ in the interfacial region of model membranes. […] We reasoned that the binding of Ca^2+ to the headgroup region of anionic lipid bilayers would reduce the bulk Ca^2+ detected by the CG-5N probe, providing a direct readout of Ca^2+ accumulation at the membrane interface. […]

Q: For `Cc1cc(O)cc(C)c1C[C@H](NC(=O)[C@H](N)CCCNC(=N)N)C(=O)N[C@@H](CCCCN)C(=O)N[C@@H](Cc1ccccc1)C(N)=O` [SS-31, D-Arg-2′6′-dimethyl-Tyr-Lys-Phe-NH2] (H-[dR][Dmt]KF-NH2), which “release of Ca2+ from membrane interface (CG-5N response)” value is on record?
A: released Ca^2+ from the membrane interface in a dose-dependent manner
